Assay type in all cases: cell-based, human
For one assay, the system named is MYB. Kind of assay: HiBiT protein abundance assay, MYB HiBiT K562 cell line. To be noted: 24 hours, top dose 10 μM. The essentials: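 K562 knock-in lines with endogenous HiBiT-tagged target, 10,000 cells/well in IMDM + FBS, treated 24 h at 37° C with 10-point 3-fold dilutions (top 10 μM final; DMSO ≤0.25%). Lytic Nano-Glo HiBiT luminescence normalized to untagged K562 baseline and DMSO controls; IC50 = concentration giving 50% abundance via four-parameter fit.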
In general terms: HiBiT is a short tag that completes a luciferase, so light tracks the accessible tagged protein.

The subject of assay [1] is Target C. In words: RT-qPCR splicing assay panel, Target C canonical junction (CJ) mRNA. To be noted: Homo sapiens; Table 5 panel; canonical junction qPCR; compound concentration having 50% response in CJ decrease; read-out: Target C IC50 (decrease in CJ mRNA levels). The method in brief:
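Canonical-junction transcript levels in compound-treated A673 or K562 cells (24 h, up to 10 uM final) were determined from lysates by RT-qPCR with housekeeping-gene normalization.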
A general note: In qPCR the cycle at which signal appears reflects the starting amount.

In assay [2] the test system is Target C. In words: HiBiT protein abundance assay, Target C (Promega Nano-Glo HiBiT Lytic Detection System, knock-in K562 cell line). The conditions noted are these: Homo sapiens, K562, 24 h, HiBiT K562 cell line, 24 hours, top dose 10 μM; read-out: Effect on protein abundance, Target C (IC50 category). The essentials: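 Knock-in K562 cells carrying HiBiT-tagged Target C, 10,000 per well, treated 24 h at 37 °C with 10-point threefold dilutions (top 10 μM final, ≤0.25% DMSO). Lytic HiBiT luminescence read; response normalised to unmodified K562 and DMSO controls, four-parameter fit interpolated at 50% for IC50.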

Where [3] appears, read: HiBiT K562 cell line, read-out: Effect on protein abundance, MYB (IC50 category).
Setting [4] is: HiBiT lytic detection, modified K562 cells, read-out: Effect on protein abundance, MYB (IC50).

Structures are written as SMILES. Where a name gives a salt, the structure may show the parent alone. Read-outs that look alike come from different tables or passages of the source. Some results are limits rather than exact numbers.

On to `Cc1cc(-c2ccc3c(=O)n(N4CCN(C)CC4)cnc3c2)cc2cn(C)nc12` [Compound 175], for which the half-inhibitory concentration (IC50) (usually the concentration at which inhibition is half-maximal) was 1000 to 10000 nM in the assay on MYB (setting [3]), over 10000 nM in the assay with Target C [1] and over 10000 nM in the assay with Target C [2].
Take `Cc1cn2nc(-c3ccc4c(=O)n(C5CCN(C)CC5)cnc4c3)cc(C)c2n1` [Compound 176]: the IC50 lay in the range of 100 to 1000 nM in the assay with MYB (setting [3]), 1000 to 10000 nM with Target C [1] and 1000 to 10000 nM in the assay with Target C [2].
Turning to `CN1CCC(c2ccc3c(=O)n(-c4ccc5nn(C)cc5c4)cnc3c2)CC1` [Compound 177], the IC50 in the assay with MYB (setting [3]) was over 10000 nM; in the assay on Target C [1], 1000 to 10000 nM; with Target C [2] it was over 10000 nM.
Consider `CN1CCN(c2ccc3c(=O)n(-c4ccc5cn(C)nc5c4)cnc3c2)CC1` [Compound 178], for which the concentration for half-maximal inhibition (IC50) with MYB (setting [3]), in the assay with Target C [1] and in the assay on Target C [2] was over 10000 nM throughout.
In the case of `Cc1cc(-c2ccc3c(=O)n(C4CC(C)(C)NC(C)(C)C4)cnc3n2)cc2cn(C)nc12` [Compound 179], the IC50 in the assay with MYB (setting [3]), in the assay on Target C [1] and with Target C [2] was over 10000 nM each time.
Take `CN(c1ccc2c(=O)n(-c3ccc4nn(C)cc4c3)cnc2c1)C1CCNCC1` [Compound 180]: the concentration for half-maximal inhibition (IC50) in the assay on MYB (setting [3]) is over 10000 nM; in the assay with Target C [1], 1000 to 10000 nM; in the assay with Target C [2] it was over 10000 nM.
As for `Cc1cn2nc(-c3ccc4c(=O)n(C5CCNCC5)cnc4c3)cc(C)c2n1` [Compound 181], the IC50 is under 100 nM in the assay on MYB (setting [3]), 100 to 1000 nM with Target C [1] and under 100 nM in the assay with Target C [2].
As for `Cc1cc(-c2ccc3c(=O)n(C4CCNC5(CC5)C4)ncc3c2)cc2cn(C)nc12` (stereo not drawn) [Compound 512], the values for the IC50 in the assay on MYB (setting [3]), with Target C [1] and with Target C [2] were 1000 to 10000 nM, 1000 to 10000 nM and under 100 nM, respectively.
Regarding `Cc1nc2c(C)cc(-c3ccc4c(=O)n(C5CCNC6(CC6)C5)ncc4c3)cc2o1` (stereo not drawn) [Compound 513], the IC50 in the assay on MYB (setting [3]), in the assay on Target C [1] and in the assay on Target C [2] was 1000 to 10000 nM throughout.
Consider `COc1cc(-c2ccc3c(=O)n(C4CCNCC4)ccc3c2)nn2cc(C)nc12` [Compound 514, 6-(8-methoxy-2-methyl-imidazo[1,2-b]pyridazin-6-yl)-2-(4-piperidyl) isoquinolin-1-one; hydrochloride], for which the half-inhibitory concentration (IC50) in the assay on MYB (setting [3]), with Target C [1] and with Target C [2] was under 100 nM throughout.
In the case of `Cc1cn2nc(-c3ccc4c(=O)n(C5CCN(CCF)CC5)ncc4c3)cc(C)c2n1` [Compound 515], the IC50 with MYB (setting [3]), in the assay with Target C [1] and in the assay on Target C [2] was 1000 to 10000 nM each time.
In the case of `Cc1cn2nc(-c3ccc4c(=O)n(C5CCNCC5)ccc4c3)cc(C(=O)O)c2n1` [Compound 516, 2-methyl-6-[1-oxo-2-(4-piperidyl)-6-isoquinolyl]imidazo[1,2-b]pyridazine-8-carboxylic acid], the IC50 with MYB (setting [3]), in the assay on Target C [1] and in the assay with Target C [2] was 1000 to 10000 nM each time.
For `COC(=O)c1cc(-c2ccc3c(=O)n(C4CCNCC4)ccc3c2)nn2cc(C)nc12` [Compound 517, methyl 2-methyl-6-[1-oxo-2-(4-piperidyl)-6-isoquinolyl]imidazo[1,2-b]pyridazine-8-carboxylate], the IC50 lay within 100 to 1000 nM in the assay on MYB (setting [3]), 1000 to 10000 nM in the assay on Target C [1] and 1000 to 10000 nM with Target C [2].
On to `CNC(=O)c1cc(-c2ccc3c(=O)n(C4CCNCC4)ccc3c2)nn2cc(C)nc12` [Compound 518, N, 2-dimethyl-6-[1-oxo-2-(4-piperidyl)-6-isoquinolyl]imidazo[1,2-b]pyridazine-8-carboxamide], for which the figures for the IC50 with MYB (setting [3]), in the assay on Target C [1] and in the assay on Target C [2] were 1000 to 10000 nM, over 10000 nM and 1000 to 10000 nM, respectively.
Turning to `Cc1cn2nc(-c3ccc4c(=O)n(C5CCNCC5)ccc4c3)cc(Oc3ccccc3)c2n1` [Compound 519, 6-(2-methyl-8-phenoxy-imidazo[1,2-b]pyridazin-6-yl)-2-(4-piperidyl)isoquinolin-1-one], the IC50 with MYB (setting [3]), in the assay with Target C [1] and in the assay with Target C [2] was under 100 nM in each case.
For `Cc1cn2nc(-c3ccc4c(=O)n(C5CCNCC5)ccc4c3)cc(CC#N)c2n1` [Compound 520, 2-[2-methyl-6-[1-oxo-2-(4-piperidyl)-6-isoquinolyl]imidazo[1,2-b]pyridazin-8-yl]acetonitrile], the IC50 with MYB (setting [3]) was 100 to 1000 nM; with Target C [1], 1000 to 10000 nM; in the assay with Target C [2], 1000 to 10000 nM.
In the case of `Cn1ccc2c(cnn2-c2ccc3c(=O)n(C4CCNCC4)ccc3c2)c1=O` [Compound 521], the IC50 with MYB (setting [3]), in the assay on Target C [1] and with Target C [2] was 1000 to 10000 nM in each case.
`Cn1ccc2nn(-c3ccc4c(=O)n(C5CCNCC5)ccc4c3)cc2c1=O` [Compound 522, 6-{5-methyl-4-oxopyrazolo[4,3-c]pyridin-2-yl}-2-(piperidin-4-yl)isoquinolin-1-one]: the values for the IC50 with MYB (setting [3]), in the assay with Target C [1] and with Target C [2] were 1000 to 10000 nM, over 10000 nM and over 10000 nM, respectively.
In the case of `Cc1cn2nc(-c3ccc4c(=O)n(C5CCNCC5)ccc4c3)cc(C(N)=O)c2n1` [Compound 523, 2-methyl-6-[1-oxo-2-(4-piperidyl)-6-isoquinolyl]imidazo[1,2-b]pyridazine-8-carboxamide], the IC50 was 1000 to 10000 nM in the assay on MYB (setting [3]), over 10000 nM in the assay with Target C [1] and 1000 to 10000 nM with Target C [2].
As for `Cc1cn2nc(-c3ccc4c(=O)n(C5CCNCC5)ccc4c3)cc(C(=O)N(C)C)c2n1` [Compound 524, N, N, 2-trimethyl-6-[1-oxo-2-(4-piperidyl)-6-isoquinolyl]imidazo[1,2-b]pyridazine-8-carboxamide], the IC50 in the assay with MYB (setting [3]), in the assay with Target C [1] and in the assay on Target C [2] was over 10000 nM in each case.
As to `Cc1cn2nc(-c3ccc4c(=O)n(C5CCNCC5)ccc4c3)cc(CO)c2n1` [Compound 525, 6-[8-(hydroxymethyl)-2-methyl-imidazo[1,2-b]pyridazin-6-yl]-2-(4-piperidyl) isoquinolin-1-one], the IC50 is under 100 nM with MYB (setting [3]), 100 to 1000 nM in the assay on Target C [1] and 100 to 1000 nM in the assay with Target C [2].
On to `Cc1cn2nc(-c3ccc4c(=O)n(C5CCNCC5)ccc4c3)cc(OCc3ccccc3)c2n1` [Compound 526, 6-(8-benzyloxy-2-methyl-imidazo[1,2-b]pyridazin-6-yl)-2-(4-piperidyl) isoquinolin-1-one], for which the values for the IC50 with MYB (setting [3]), in the assay with Target C [1] and with Target C [2] were under 100 nM, 1000 to 10000 nM and 100 to 1000 nM, respectively.
As for `COC(=O)Cc1cc(-c2ccc3c(=O)n(C4CCNCC4)ccc3c2)nn2cc(C)nc12` [Compound 527], the 50% inhibitory concentration (IC50) in the assay with MYB (setting [3]) was in the range of 100 to 1000 nM; in the assay on Target C [1], 1000 to 10000 nM; in the assay on Target C [2], 100 to 1000 nM.
Consider `Cc1cn2nc(-c3ccc4c(=O)n(C5CCNCC5)ccc4c3)cc(CC(N)=O)c2n1` [Compound 528, 2-(2-methyl-6-(1-oxo-2-(piperidin-4-yl)-1,2-dihydroisoquinolin-6-yl)imidazo[1,2-b]pyridazin-8-yl) acetamide], for which the half-inhibitory concentration (IC50) is 1000 to 10000 nM in the assay with MYB (setting [3]), 1000 to 10000 nM in the assay on Target C [1] and 100 to 1000 nM with Target C [2].
For the molecule `CCOC(=O)c1cc(-c2ccc3c(=O)n(C4CCNCC4)ccc3c2)nn2cc(C)nc12` [Compound 529, ethyl 2-methyl-6-[1-oxo-2-(4-piperidyl)-6-isoquinolyl]imidazo[1,2-b]pyridazine-8-carboxylate], the figures for the IC50 in the assay on MYB (setting [3]), in the assay with Target C [1] and with Target C [2] were 100 to 1000 nM, 1000 to 10000 nM and 100 to 1000 nM, respectively.
On to `Cn1cc2c(=O)n(-c3ccc4c(=O)n(C5CCNCC5)ccc4c3)ccc2n1` [Compound 530, 6-{2-methyl-4-oxopyrazolo[4,3-c]pyridin-5-yl}-2-(piperidin-4-yl)isoquinolin-1-one], for which the IC50 in the assay on MYB (setting [3]), with Target C [1] and in the assay with Target C [2] was over 10000 nM in each case.
In the case of `Cc1cn2nc(-c3ccc4c(=O)n(C5CCNCC5)ccc4c3)cc(CC(=O)O)c2n1` [Compound 531, 2-[2-methyl-6-[1-oxo-2-(4-piperidyl)-6-isoquinolyl]imidazo[1,2-b]pyridazin-8-yl]acetic acid], the concentration for half-maximal inhibition (IC50) with MYB (setting [3]) is under 100 nM; in the assay on Target C [1] it was 100 to 1000 nM; with Target C [2] it was 100 to 1000 nM.
Turning to `Cc1cn2nc(-c3ccc4c(=O)n(C5CCNCC5)ccc4c3)cc(CCO)c2n1` [Compound 533, 6-[8-(2-hydroxyethyl)-2-methyl-imidazo[1,2-b]pyridazin-6-yl]-2-(4-piperidyl)isoquinolin-1-one], the IC50 with MYB (setting [3]) was under 100 nM; in the assay with Target C [1], 1000 to 10000 nM; in the assay on Target C [2] it was 100 to 1000 nM.
Take `CNC1CCN(c2ccc3cc(-c4cc(C)c5nc(C)cn5n4)ccn3c2=O)C1` (stereo not drawn) [Compound 1158]: the IC50 in the assay with MYB (setting [4]) lay within 100 to 1000 nM; in the assay with Target C [1] it was 1000 to 10000 nM.
As for `Cc1cn2nc(-c3ccn4c(=O)c(C5CCNCC5)ccc4c3)cc(C)c2n1` [Compound 1181], the IC50 with MYB (setting [4]) and with Target C [1] was under 100 nM in each case.
As for `Cc1cn2nc(-c3ccn4c(=O)c(C5=CCNCC5)ncc4c3)cc(C)c2n1` [Compound 1182], the IC50 in the assay with MYB (setting [4]) and with Target C [1] was 100 to 1000 nM throughout.

The values are drawn from patent US20250332173A1, “COMPOUNDS AND METHODS FOR MODULATING NUCLEIC ACID SPLICING” (REMIX THERAPEUTICS INC., priority 2021, published 2025).
